This note sets out measurements from patent US20140045890A1, “NOVEL COMPOUNDS” (SYNGENTA PARTICIPATIONS AG, priority 2011, published 2014).

Molecules are shown by their SMILES.

In general, melting point refers to the temperature, or range, at which the solid turns liquid.

Data set [1] has as its system Phaeosphaeria nodorum (Septoria nodorum). Put plainly: Phaeosphaeria nodorum (Septoria nodorum) / wheat / leaf disc preventative (glume blotch). The class given is in vivo. As to conditions: Parastagonospora nodorum, foliar, wheat leaf segments cv. Kanzler, inoculated 2 days after application, assessed 5-7 days after application, read-out: inhibit fungal infestation (percent disease control compared to untreated).

The next data set concerns Phytophthora infestans. Nature of the data set: whole plant or invertebrate. The class given is in vivo. As to conditions: in Solanum lycopersicum, foliar, read-out: inhibit fungal infestation (percent disease control compared to untreated).
The subject of the next data set is Pythium ultimum. Nature of the data set: Pythium ultimum / liquid culture (seedling damping off). Type of data set: cell-based. As to conditions: Globisporangium ultimum, liquid culture in PDB, 24° C., 2-3 days after application, read-out: inhibit fungal infestation (inhibition of growth determined photometrically).
For the next data set, the system named is Plasmopara viticola. Nature of the data set: Plasmopara viticola / grape / leaf disc preventative. The class given is in vivo. As to conditions: foliar, grape vine leaf disks, inoculated 1 day after application, assessed 6-8 days after application, read-out: inhibit fungal infestation (percent disease control compared to untreated).
The subject of data set [2] is Blumeria qraminis f. sp. tritici (Erysiphe qraminis f. sp. tritici). Put plainly: Blumeria graminis f. sp. tritici / wheat / leaf disc preventative (powdery mildew on wheat). The class given is in vivo. As to conditions: foliar, wheat leaf segments cv. Kanzler, inoculated 1 day after application, assessed 6-8 days after application, read-out: inhibit fungal infestation (percent disease control compared to untreated).

`C#Cc1cnc2c(C)cc(OC(SC)C(=O)NCc3nc(C)cs3)cc2c1` (stereo not drawn) [Compound 24] came in with a melting point of 148 °C. In addition, the inhibition at 200 ppm in data set [1] is at least 80%. Besides, the inhibition at 200 ppm with Phytophthora infestans was at least 80%. Also, in the data set with Pythium ultimum, the inhibition at 200 ppm was at least 80%. The inhibition at 200 ppm with Plasmopara viticola is at least 80%. The inhibition at 200 ppm in data set [2] was at least 80%.
On to `C#Cc1cnc2ccc(OC(SC)C(=O)NC(C)(C)c3nccs3)cc2c1` (stereo not drawn) [Compound 32], for which the melting point was 123 °C. Further, the inhibition at 200 ppm in data set [1] was at least 80%. Moreover, in the data set with Phytophthora infestans, the inhibition at 200 ppm is at least 80%. For the same compound, the inhibition at 200 ppm in the data set on Pythium ultimum was at least 80%. Moreover, the inhibition at 200 ppm with Plasmopara viticola is at least 80%. Besides, the inhibition at 200 ppm in data set [2] was at least 80%.
Consider `C=Cc1cnc2c(C)cc(OC(OC)C(=O)NC(C)(C)c3nc(C)cs3)cc2c1` (stereo not drawn) [Compound 135], for which the melting point was 139 °C. Further, the inhibition at 200 ppm in data set [1] is at least 80%. The inhibition at 200 ppm in the data set on Phytophthora infestans is at least 80%. The inhibition at 200 ppm in the data set with Pythium ultimum is at least 80%. In the data set on Plasmopara viticola, the inhibition at 200 ppm is at least 80%. Further, the inhibition at 200 ppm in data set [2] was at least 80%.
